Source: patent US6365753B1, “Phthalimides and herbicide containing the same as active component” (Mitsubishi Chemical Corporation, priority 1998, dated 2002)

How the values were obtained:
Type in all cases: in vivo
wheat = assay: Foliar treatment test (3) post emergence application, crop injury; details: 3.0 to 4.0-leaf stage, 0.125% X-77, 21st day, index
Procedure: (§1) Volcanic ash soil from a field was put in a resin-made pot having an area of 200 cm^2. After fertilization, the seeds of Galim spurium, Brassica juncea, and wheat were cast on the soil and covered with the soil uniformly. Cultivation was continued in a greenhouse until the plants reached to the 3.0 to 4.0-leaf stage.
(§2) The emulsifiable concentrate comprising compound No. 5 of the present invention, comparative compound (B) or comparative compound (C) as an active ingredient which was prepared in accordance with Formulation Example 3 was diluted with water containing 0.125% of a spreading agent X-77 (trade name, Valent USA Co.) so that a spray of 250 L/ha might give a prescribed amount of the active ingredient. The diluted composition was uniformly sprayed to the Galium spurium plant, the Brassica juncea plant, and the wheat plant by means of a small-sized power pressure spray.
(§3) Thereafter, cultivation was continued in the greenhouse, and the herbicidal effect and the injury to the crop were examined on the 21st day from the treatment. The herbicidal effect and the injury to the crop were evaluated on the same criteria as in Test Example 4.

Galium spurium = assay: Foliar treatment test (3) post emergence application; details: 3.0 to 4.0-leaf stage, 0.125% X-77, 21st day, index
Procedure: as §1, §2, §3

Brassica juncea [1] = assay: as above; details: 3.0 to 4.0-leaf stage, 0.125% X-77, 21st day, index
Procedure: as §1, §2, §3

Brassica juncea [2] = assay: Foliar treatment test (1) post-emergence application; details: foliar treatment post-emergence at 1.0- to 2.0-leaf stage, 10 g/a active ingredient, 21st day from treatment; herbicidal index; further: ranges in brackets are in %
Procedure: (§4) Volcanic ash soil from a field was put in a resin-made pot having an area of 200 cm^2. After fertilization, the seeds of Brassica juncea, Ipomoea purpurea, Echinochloa crus-galli and Alopeculus aequalis were cast on the soil and uniformly covered with the soil.
(§5) Cultivation was continued in a greenhouse, and when the weeds reached the 1.0- to 2.0-leaf stage, a prescribed amount of the emulsifiable concentrate comprising the compound of the invention as an active ingredient which was prepared in Formulation Example 3 as diluted with water was sprayed uniformly to the weeds by means of a small-sized power pressure spray to give 10 g of the active ingredient per are.
(§6) Thereafter, cultivation was further continued in the greenhouse, and the herbicidal effect was examined on the 21st day from the treatment. The results obtained are shown in Table 6 (the compound numbers in Table 6 correspond to those in Tables 1 and 2). The herbicidal effect was evaluated based on the same criteria as in Test Example 1.

Alopeculus aequalis = assay: as above; details: foliar treatment post-emergence at 1.0- to 2.0-leaf stage, 10 g/a active ingredient, 21st day from treatment; herbicidal index; further: ranges in brackets are in %
Procedure: as §4, §5, §6

Echinochloa crus-galli = assay: as above; details: foliar treatment post-emergence at 1.0- to 2.0-leaf stage, 10 g/a active ingredient, 21st day from treatment; herbicidal index; further: ranges in brackets are in %
Procedure: as §4, §5, §6

Ipomoea purpurea = assay: as above; details: foliar treatment post-emergence at 1.0- to 2.0-leaf stage, 10 g/a active ingredient, 21st day from treatment; herbicidal index; further: ranges in brackets are in %
Procedure: as §4, §5, §6

Polygonum lapathifolium = assay: Soil treatment test pre-emergence application; details: 10 g/a active ingredient, 28th day from treatment, herbicidal index; further: ranges in brackets are in %
Procedure: (§7) Volcanic ash soil from a field was put in a resin-made pot having an area of 200 cm^2. After fertilization, soil previously mixed uniformly with the seeds of Digitaria ciliaris, Setaria viridis, Chenopodium album and Polygonum lapathifolium was scattered on the soil. The emulsifiable concentrate comprising the compound of the invention as an active ingredient which was obtained in Formulation Example 3 was diluted with water, and a prescribed amount of the diluted composition was sprayed uniformly to the surface of the soil by means of a small-sized power pressure spray to give 10 g of the active ingredient per are.
as §6, with “was” for “was further”, “in a” for “in the”, “the 28th” for “the 21st”, “Table 5” for “Table 6”

Digitaria ciliaris = assay: Soil treatment test pre-emergence application; details: 10 g/a active ingredient, 28th day from treatment, herbicidal index; further: ranges in brackets are in %
Procedure: as §7
as §6, with “was” for “was further”, “in a” for “in the”, “the 28th” for “the 21st”, “Table 5” for “Table 6”

Setaria viridis = assay: Soil treatment test pre-emergence application; details: 10 g/a active ingredient, 28th day from treatment, herbicidal index; further: ranges in brackets are in %
Procedure: as §7
as §6, with “was” for “was further”, “in a” for “in the”, “the 28th” for “the 21st”, “Table 5” for “Table 6”

Chenopodium album = assay: Soil treatment test pre-emergence application; details: 10 g/a active ingredient, 28th day from treatment, herbicidal index; further: ranges in brackets are in %
Procedure: as §7
as §6, with “was” for “was further”, “in a” for “in the”, “the 28th” for “the 21st”, “Table 5” for “Table 6”

| SMILES | Crop Injury Wheat (wheat; 12.5 ga.i./ha) | Crop Injury Wheat (wheat; 25.0 ga.i./ha) | Crop Injury Wheat (wheat; 50.0 ga.i./ha) | Herbicidal Effect Galium spurium (Galium spurium; 12.5 ga.i./ha) | Herbicidal Effect Galium spurium (Galium spurium; 25.0 ga.i./ha) | Herbicidal Effect Galium spurium (Galium spurium; 50.0 ga.i./ha) | Herbicidal Effect Brassica juncea (Brassica juncea [1]; 12.5 ga.i./ha) | Herbicidal Effect Brassica juncea (Brassica juncea [1]; 25.0 ga.i./ha) | Herbicidal Effect Brassica juncea (Brassica juncea [1]; 50.0 ga.i./ha) | Herbicidal Effect Brassica juncea (Brassica juncea [2]) | Herbicidal Effect Alopeculus sequalis (Alopeculus aequalis) | Herbicidal Effect Echinochloa crus-galli (Echinochloa crus-galli) | Herbicidal Effect Ipompoea-purpurea (Ipomoea purpurea) | Herbicidal Effect Polygonum lapathifolium (Polygonum lapathifolium) | Herbicidal Effect Digitaria ciliaris (Digitaria ciliaris) | Herbicidal Effect Setaria viridis (Setaria viridis) | Herbicidal Effect Chenopodium album (Chenopodium album) |
| --- | --- | --- | --- | --- | --- | --- | --- | --- | --- | --- | --- | --- | --- | --- | --- | --- | --- |
| CCO/N=C(/COc1cc(N2C(=O)c3ccccc3C2=O)c(F)cc1Cl)C(=O)OCC [Comparative Compound (B)] | 3 (20-29) | 3 (20-29) | 4 (30-39) | 9 (90-99) | 9 (90-99) | 10 (100) | 9 (90-99) | 10 (100) | 10 (100) |  |  |  |  |  |  |  |  |
| CCOC(=O)C(Cl)Cc1cc(-n2nc(C)n(C(F)F)c2=O)c(F)cc1Cl (stereo not drawn) [Comparative Compound (C), Carfentrazone-ethyl] | 3 (20-29) | 4 (30-39) | 6 (60-69) | 10 (100) | 10 (100) | 10 (100) | 9 (90-99) | 10 (100) | 10 (100) |  |  |  |  |  |  |  |  |
| COC(=O)C(Cl)Cc1cc(N2C(=O)c3ccccc3C2=O)ccc1Cl (stereo not drawn) [Compound 1] |  |  |  |  |  |  |  |  |  | 5 (91-100) | 1 (6-30) | 1 (6-30) | 5 (91-100) |  |  |  |  |
| COC(=O)C(Cl)Cc1cc(N2C(=O)c3ccc(F)cc3C2=O)ccc1Cl (stereo not drawn) [Compound 2] |  |  |  |  |  |  |  |  |  | 5 (91-100) | 1 (6-30) | 2 (31-50) | 5 (91-100) |  |  |  |  |
| O=C(O)C(Cl)Cc1cc(N2C(=O)c3ccccc3C2=O)c(F)cc1Cl (stereo not drawn) [Compound 3, 2-Chloro-3-(2-chloro-4-fluoro-5-pthalimidophenyl)propionic Acid] |  |  |  |  |  |  |  |  |  | 5 (91-100) | 1 (6-30) | 1 (6-30) | 5 (91-100) | 5 (91-100) | 0 (0-5) | 0 (0-5) | 5 (91-100) |
| COC(=O)C(Cl)Cc1cc(N2C(=O)c3ccccc3C2=O)c(F)cc1Cl (stereo not drawn) [Compound 4, Methyl 2-Chloro-3-(2-chloro-4-fluoro-5-phthalimidophenyl)propionate] |  |  |  |  |  |  |  |  |  | 5 (91-100) | 1 (6-30) | 2 (31-50) | 5 (91-100) | 5 (91-100) | 0 (0-5) | 0 (0-5) | 5 (91-100) |
